Results as given in the supplement of paper PMC10307832.

Tests used:
Assay in all cases: relative viability (nuclei count vs DMSO), 5 days (fraction); higher = more cells survive
Tipifarnib = compound: Cn1cncc1[C@@](N)(c1ccc(Cl)cc1)c1ccc2c(c1)c(-c1cccc(Cl)c1)cc(=O)n2C [Tipifarnib]
How it was run: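 MetaXpress counted nuclei in 4× images of lung cancer cell lines that had been fixed, permeabilised and Hoechst-stained in one step. Before that, cells in 1536-well plates were kept overnight at 37 °C, pinned with five √10-spaced library-drug doses on vehicle-anchored plates, and cultured 5 days without medium change. Viability takes treated-well nuclei over vehicle-well nuclei and uses the median across plates. Plates were accepted only at control CV below 25% and at least one doubling.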

Tipifarnib + Trametinib = compound: Cn1cncc1[C@@](N)(c1ccc(Cl)cc1)c1ccc2c(c1)c(-c1cccc(Cl)c1)cc(=O)n2C [Tipifarnib] + CC(=O)Nc1cccc(-n2c(=O)n(C3CC3)c(=O)c3c(Nc4ccc(I)cc4F)n(C)c(=O)c(C)c32)c1 [Trametinib] (partner 0.02 µM)
How it was run: (§1)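 Dosing by pin tool came one day after lung cancer cell lines were seeded in 1536-well plates, using either one drug or a fixed anchor-drug dose plus five library-drug doses (not always all listed) in √10 steps. After 5 days, nuclei were counted on 4× images. Relative viability is treated-well nuclei count divided by vehicle-well nuclei count, and values are medians of duplicate plates.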

Tipifarnib + Palbociclib = compound: Cn1cncc1[C@@](N)(c1ccc(Cl)cc1)c1ccc2c(c1)c(-c1cccc(Cl)c1)cc(=O)n2C [Tipifarnib] + CC(=O)c1c(C)c2cnc(Nc3ccc(N4CCNCC4)cn3)nc2n(C2CCCC2)c1=O [Palbociclib] (partner 0.5 µM)
How it was run: as §1

Tipifarnib + Luminespib = compound: Cn1cncc1[C@@](N)(c1ccc(Cl)cc1)c1ccc2c(c1)c(-c1cccc(Cl)c1)cc(=O)n2C [Tipifarnib] + CCNC(=O)c1noc(-c2cc(C(C)C)c(O)cc2O)c1-c1ccc(CN2CCOCC2)cc1 [Luminespib] (partner 0.01 µM)
How it was run: as §1

Tipifarnib + OSI-027 = compound: Cn1cncc1[C@@](N)(c1ccc(Cl)cc1)c1ccc2c(c1)c(-c1cccc(Cl)c1)cc(=O)n2C [Tipifarnib] + COc1cccc2cc(-c3nc([C@H]4CC[C@H](C(=O)O)CC4)n4ncnc(N)c34)[nH]c12 [OSI-027] (partner 0.5 µM)
How it was run: as §1

Tipifarnib + Tozasertib = compound: Cn1cncc1[C@@](N)(c1ccc(Cl)cc1)c1ccc2c(c1)c(-c1cccc(Cl)c1)cc(=O)n2C [Tipifarnib] + Cc1cc(Nc2cc(N3CCN(C)CC3)nc(Sc3ccc(NC(=O)C4CC4)cc3)n2)n[nH]1 [Tozasertib] (partner 0.1 µM)
How it was run: as §1

Tipifarnib + Dasatinib = compound: Cn1cncc1[C@@](N)(c1ccc(Cl)cc1)c1ccc2c(c1)c(-c1cccc(Cl)c1)cc(=O)n2C [Tipifarnib] + Cc1nc(Nc2ncc(C(=O)Nc3c(C)cccc3Cl)s2)cc(N2CCN(CCO)CC2)n1 [Dasatinib] (partner 0.075 µM)
How it was run: as §1

Tipifarnib + Phenformin = compound: Cn1cncc1[C@@](N)(c1ccc(Cl)cc1)c1ccc2c(c1)c(-c1cccc(Cl)c1)cc(=O)n2C [Tipifarnib] + N=C(N)NC(=N)NCCc1ccccc1 [Phenformin] (partner 250 µM)
How it was run: as §1

Tipifarnib + AZD7762 = compound: Cn1cncc1[C@@](N)(c1ccc(Cl)cc1)c1ccc2c(c1)c(-c1cccc(Cl)c1)cc(=O)n2C [Tipifarnib] + NC(=O)Nc1cc(-c2cccc(F)c2)sc1C(=O)N[C@H]1CCCNC1 [AZD7762] (partner 0.2 µM)
How it was run: as §1

Tipifarnib + Pemetrexed = compound: Cn1cncc1[C@@](N)(c1ccc(Cl)cc1)c1ccc2c(c1)c(-c1cccc(Cl)c1)cc(=O)n2C [Tipifarnib] + Nc1nc2[nH]cc(CCc3ccc(C(=O)N[C@@H](CCC(=O)O)C(=O)O)cc3)c2c(=O)[nH]1 [Pemetrexed] (partner 0.2 µM)
How it was run: as §1

Tipifarnib + Decitabine = compound: Cn1cncc1[C@@](N)(c1ccc(Cl)cc1)c1ccc2c(c1)c(-c1cccc(Cl)c1)cc(=O)n2C [Tipifarnib] + Nc1ncn([C@H]2C[C@H](O)[C@@H](CO)O2)c(=O)n1 [Decitabine] (partner 2 µM)
How it was run: as §1

Tipifarnib + Vorinostat = compound: Cn1cncc1[C@@](N)(c1ccc(Cl)cc1)c1ccc2c(c1)c(-c1cccc(Cl)c1)cc(=O)n2C [Tipifarnib] + O=C(CCCCCCC(=O)Nc1ccccc1)NO [Vorinostat] (partner 1 µM)
How it was run: as §1

Tipifarnib + Olaparib = compound: Cn1cncc1[C@@](N)(c1ccc(Cl)cc1)c1ccc2c(c1)c(-c1cccc(Cl)c1)cc(=O)n2C [Tipifarnib] + O=C(c1cc(Cc2n[nH]c(=O)c3ccccc23)ccc1F)N1CCN(C(=O)C2CC2)CC1 [Olaparib] (partner 8 µM)
How it was run: as §1

Question: Which relative viability (Tipifarnib; 0.01 µM) does the source give for NCI-H522 here?
Answer: 0.917

Question: What about the relative viability (Tipifarnib; 0.03162 µM) of the same cell line?
Answer: 1.06

Question: And the relative viability (Tipifarnib; 0.1 µM)?
Answer: 1.1

Question: What about the relative viability (Tipifarnib; 0.3162 µM) of the same cell line?
Answer: 0.898

Question: What about the relative viability (Tipifarnib; 1 µM) of the same cell line?
Answer: 0.748

Question: What about the relative viability (Tipifarnib + Trametinib; first compound 0.01 µM) of the same cell line?
Answer: 0.802

Question: And the relative viability (Tipifarnib + Trametinib; first compound 0.03162 µM)?
Answer: 0.834

Question: What about the relative viability (Tipifarnib + Trametinib; first compound 0.1 µM) of the same cell line?
Answer: 0.739

Question: What about the relative viability (Tipifarnib + Trametinib; first compound 0.3162 µM) of the same cell line?
Answer: 0.68

Question: And the relative viability (Tipifarnib + Trametinib; first compound 1 µM)?
Answer: 0.696

Question: And the relative viability (Tipifarnib + Palbociclib; first compound 0.01 µM)?
Answer: 0.9

Question: What about the relative viability (Tipifarnib + Palbociclib; first compound 0.03162 µM) of the same cell line?
Answer: 1.2

Question: And the relative viability (Tipifarnib + Palbociclib; first compound 0.1 µM)?
Answer: 1.07

Question: What about the relative viability (Tipifarnib + Palbociclib; first compound 0.3162 µM) of the same cell line?
Answer: 0.898

Question: And the relative viability (Tipifarnib + Palbociclib; first compound 1 µM)?
Answer: 0.923

Question: And the relative viability (Tipifarnib + Luminespib; first compound 0.01 µM)?
Answer: 0.831

Question: What about the relative viability (Tipifarnib + Luminespib; first compound 0.03162 µM) of the same cell line?
Answer: 1.33

Question: And the relative viability (Tipifarnib + Luminespib; first compound 0.1 µM)?
Answer: 1.18

Question: And the relative viability (Tipifarnib + Luminespib; first compound 0.3162 µM)?
Answer: 1.08

Question: What about the relative viability (Tipifarnib + Luminespib; first compound 1 µM) of the same cell line?
Answer: 1.27

Question: And the relative viability (Tipifarnib + OSI-027; first compound 0.01 µM)?
Answer: 0.66

Question: What about the relative viability (Tipifarnib + OSI-027; first compound 0.03162 µM) of the same cell line?
Answer: 0.709

Question: What about the relative viability (Tipifarnib + OSI-027; first compound 0.1 µM) of the same cell line?
Answer: 0.725

Question: What about the relative viability (Tipifarnib + OSI-027; first compound 0.3162 µM) of the same cell line?
Answer: 0.584

Question: What about the relative viability (Tipifarnib + OSI-027; first compound 1 µM) of the same cell line?
Answer: 0.615

Question: And the relative viability (Tipifarnib + Tozasertib; first compound 0.01 µM)?
Answer: 0.517

Question: And the relative viability (Tipifarnib + Tozasertib; first compound 0.03162 µM)?
Answer: 0.564

Question: What about the relative viability (Tipifarnib + Tozasertib; first compound 0.1 µM) of the same cell line?
Answer: 0.525

Question: What about the relative viability (Tipifarnib + Tozasertib; first compound 0.3162 µM) of the same cell line?
Answer: 0.542

Question: And the relative viability (Tipifarnib + Tozasertib; first compound 1 µM)?
Answer: 0.566

Question: And the relative viability (Tipifarnib + Dasatinib; first compound 0.01 µM)?
Answer: 0.95

Question: And the relative viability (Tipifarnib + Dasatinib; first compound 0.03162 µM)?
Answer: 0.912

Question: What about the relative viability (Tipifarnib + Dasatinib; first compound 0.1 µM) of the same cell line?
Answer: 0.861

Question: And the relative viability (Tipifarnib + Dasatinib; first compound 0.3162 µM)?
Answer: 0.82

Question: What about the relative viability (Tipifarnib + Dasatinib; first compound 1 µM) of the same cell line?
Answer: 0.788

Question: What about the relative viability (Tipifarnib + Phenformin; first compound 0.01 µM) of the same cell line?
Answer: 0.617

Question: What about the relative viability (Tipifarnib + Phenformin; first compound 0.03162 µM) of the same cell line?
Answer: 0.698

Question: And the relative viability (Tipifarnib + Phenformin; first compound 0.1 µM)?
Answer: 0.65

Question: And the relative viability (Tipifarnib + Phenformin; first compound 0.3162 µM)?
Answer: 0.599

Question: What about the relative viability (Tipifarnib + Phenformin; first compound 1 µM) of the same cell line?
Answer: 0.563

Question: And the relative viability (Tipifarnib + AZD7762; first compound 0.01 µM)?
Answer: 0.925

Question: What about the relative viability (Tipifarnib + AZD7762; first compound 0.03162 µM) of the same cell line?
Answer: 1.03

Question: And the relative viability (Tipifarnib + AZD7762; first compound 0.1 µM)?
Answer: 0.875

Question: And the relative viability (Tipifarnib + AZD7762; first compound 0.3162 µM)?
Answer: 0.754

Question: What about the relative viability (Tipifarnib + AZD7762; first compound 1 µM) of the same cell line?
Answer: 0.662

Question: And the relative viability (Tipifarnib + Pemetrexed; first compound 0.01 µM)?
Answer: 1.08

Question: What about the relative viability (Tipifarnib + Pemetrexed; first compound 0.03162 µM) of the same cell line?
Answer: 1.2

Question: And the relative viability (Tipifarnib + Pemetrexed; first compound 0.1 µM)?
Answer: 0.886

Question: What about the relative viability (Tipifarnib + Pemetrexed; first compound 0.3162 µM) of the same cell line?
Answer: 0.973

Question: What about the relative viability (Tipifarnib + Pemetrexed; first compound 1 µM) of the same cell line?
Answer: 0.839

Question: What about the relative viability (Tipifarnib + Decitabine; first compound 0.01 µM) of the same cell line?
Answer: 0.657

Question: And the relative viability (Tipifarnib + Decitabine; first compound 0.03162 µM)?
Answer: 0.725

Question: And the relative viability (Tipifarnib + Decitabine; first compound 0.1 µM)?
Answer: 0.582

Question: What about the relative viability (Tipifarnib + Decitabine; first compound 0.3162 µM) of the same cell line?
Answer: 0.586

Question: And the relative viability (Tipifarnib + Decitabine; first compound 1 µM)?
Answer: 0.592

Question: And the relative viability (Tipifarnib + Vorinostat; first compound 0.01 µM)?
Answer: 0.908

Question: And the relative viability (Tipifarnib + Vorinostat; first compound 0.03162 µM)?
Answer: 0.761

Question: What about the relative viability (Tipifarnib + Vorinostat; first compound 0.1 µM) of the same cell line?
Answer: 0.835

Question: And the relative viability (Tipifarnib + Vorinostat; first compound 0.3162 µM)?
Answer: 0.776

Question: What about the relative viability (Tipifarnib + Vorinostat; first compound 1 µM) of the same cell line?
Answer: 0.806

Question: What about the relative viability (Tipifarnib + Olaparib; first compound 0.01 µM) of the same cell line?
Answer: 0.633

Question: And the relative viability (Tipifarnib + Olaparib; first compound 0.03162 µM)?
Answer: 0.677

Question: And the relative viability (Tipifarnib + Olaparib; first compound 0.1 µM)?
Answer: 0.621

Question: What about the relative viability (Tipifarnib + Olaparib; first compound 0.3162 µM) of the same cell line?
Answer: 0.67

Question: And the relative viability (Tipifarnib + Olaparib; first compound 1 µM)?
Answer: 0.542
